Results: PMC11566078, “Bactericidal activities and biochemical features of 16 antimicrobial peptides against bovine-mastitis causative pathogens” (Veterinary Research, 2024)
Like-named read-outs stand apart in the source and are kept apart here. Where no end group is shown, it is not given here.

Columns and labels:
Format in all cases: cell-based
[1] = tested on: Bacillus cereus ATCC 10876; test: microbe, parasite or virus in culture
Procedure: (§1) The standard bacterial strains used for antimicrobial activity assays include Staphylococcus aureus ATCC (American Type Culture Collection, Manassas, VA, USA) 6538, Bacillus cereus ATCC 10876, Enterococcus faecalis ATCC 29212, Streptococcus […] 27956, Streptococcus dysgalactiae ATCC 27957, Streptococcus equi subsp. zooepidemicus ATCC 43079, Escherichia coli ATCC 25922, and Pseudomonas aeruginosa ATCC 27853. Most bacterial strains were cultured in LB medium except for E. faecalis and streptococci, which were cultivated in brain heart infusion (BHI) broth (BD Bioscience). […] Experiments were conducted in triplicate.

[2] = tested on: Enterococcus faecalis ATCC 29212; test: microbe, parasite or virus in culture
Procedure: as §1

[3] = tested on: Pseudomonas aeruginosa ATCC 27853; test: microbe, parasite or virus in culture
Procedure: as §1

[4] = tested on: Staphylococcus aureus ATCC 6538; test: microbe, parasite or virus in culture
Procedure: as §1

[5] = tested on: Streptococcus agalactiae ATCC 27956; test: microbe, parasite or virus in culture
Procedure: as §1

[6] = tested on: Streptococcus dysgalactiae ATCC 27957; test: microbe, parasite or virus in culture
Procedure: as §1

[7] = tested on: Streptococcus equi subsp. zooepidemicus ATCC 43079; test: microbe, parasite or virus in culture
Procedure: as §1

[8] = tested on: eight standard bacterial strains
Procedure: as §1

[9] = tested on: Escherichia coli ATCC 25922; test: microbe, parasite or virus in culture; details: MH broth, WST colourimetric, 1.5 × 10^5 cells/well, 37 °C 6 h + 2 h reagent, A450, triplicate
Procedure: as §1

[10] = tested on: Staphylococcus haemolyticus; test: MIC against field isolate from milk with high SCC; details: field isolate from milk; WST colourimetric, 37 °C 6 h; triplicate
Procedure: (§2) All plates were cultivated aerobically.
(§3) Experiments were conducted in triplicate.

[11] = tested on: Staphylococcus chromogenes; test: microbe, parasite or virus in culture; details: field isolate from milk; WST colourimetric, 37 °C 6 h; triplicate
Procedure: as §2, §3

[12] = tested on: Staphylococcus epidermidis; test: microbe, parasite or virus in culture; details: field isolate from milk; WST colourimetric, 37 °C 6 h; triplicate
Procedure: as §2, §3

[13] = tested on: Staphylococcus xylosus; test: microbe, parasite or virus in culture; details: field isolate from milk; WST colourimetric, 37 °C 6 h; triplicate
Procedure: as §2, §3

[14] = only some Gram-negative and Gram-positive strains, range stated for the group of peptides
[15] = ATCC 10876, MH broth, WST colourimetric, 37 °C 6 h, triplicate
[16] = ATCC 29212, BHI broth, WST colourimetric, 37 °C 6 h, triplicate
[17] = ATCC 27853, CAMHB, WST colourimetric, 37 °C 6 h, triplicate
[18] = ATCC 6538, MH broth, WST colourimetric, 37 °C 6 h, triplicate
[19] = ATCC 27956, BHI broth, WST colourimetric, 37 °C 6 h, triplicate
[20] = ATCC 27957, BHI broth, WST colourimetric, 37 °C 6 h, triplicate
[21] = ATCC 43079, BHI broth, WST colourimetric, 37 °C 6 h, triplicate

Substance	Minimal inhibitory concentration, Bacillus cereus ([1]; ATCC 10876, 6 h)	Minimal inhibitory concentration, Enterococcus faecalis ([2]; ATCC 29212, 6 h)	Minimal inhibitory concentration, Pseudomonas aeruginosa ([3]; ATCC 27853, 6 h)	Minimal inhibitory concentration, Staphylococcus aureus ([4]; ATCC 6538, 6 h)	Minimal inhibitory concentration, Streptococcus agalactiae ([5]; ATCC 27956, 6 h)	Minimal inhibitory concentration, Streptococcus dysgalactiae ([6]; ATCC 27957, 6 h)	Minimal inhibitory concentration, Streptococcus equi subsp. zooepidemicus ([7]; ATCC 43079, 6 h)	MICs, range over the strains against which active [8, 14] [µM]	also measured
GGLRSLGRKILRAWKKYGPIIVPIIRIG [BMAP-28]	7 (2.2) μg/mL	15 (4.8) μg/mL	9 (2.9) μg/mL	5 (1.6) μg/mL	> 40 (12.6) μg/mL	> 40 (12.6) μg/mL	> 40 (12.6) μg/mL	0.7 to 18.8	
GRFRRLRKKTRKRLKKIGKVLKWIPPIVGSIPLGCG [PMAP-36]	28 (6.7) μg/mL	> 40 (9.6) μg/mL	8 (1.9) μg/mL	9 (2.2) μg/mL	> 40 (9.6) μg/mL	> 40 (9.6) μg/mL	> 40 (9.6) μg/mL		
ILGRLRDLLRRGGRKIGQGLERIGQRIQGFFSNREPMEES [HA-CATH]	25 (5.4) μg/mL	> 40 (8.6) μg/mL	> 40 (8.6) μg/mL	26 (5.6) μg/mL	> 40 (8.6) μg/mL	> 40 (8.6) μg/mL	> 40 (8.6) μg/mL	0.7 to 18.8	
KRRGSVTTRYQFLMIHLLRPKKLFA [EA-CATH1]	> 40 (13.1) μg/mL	30 (9.8) μg/mL	19 (6.1) μg/mL	41 (13.4) μg/mL	> 40 (13.1) μg/mL	> 40 (13.1) μg/mL	> 40 (13.1) μg/mL	0.7 to 18.8	
Lysostaphin: bacteriocin produced by Staphylococcus simulans, purchased (Sigma Aldrich)									Minimal inhibitory concentration, Bacillus cereus [1, 15]: > 160 (29.7) μg/mL; Minimal inhibitory concentration, Enterococcus faecalis [2, 16]: > 160 (29.7) μg/mL; Minimal inhibitory concentration, Escherichia coli [9]: > 160 (29.7) μg/mL; Minimal inhibitory concentration, Pseudomonas aeruginosa [3, 17]: > 160 (29.7) μg/mL; Minimal inhibitory concentration, Staphylococcus aureus [4, 18]: 1 µg/mL; Minimal inhibitory concentration, Streptococcus agalactiae [5, 19]: > 160 (29.7) μg/mL; Minimal inhibitory concentration, Streptococcus dysgalactiae [6, 20]: > 160 (29.7) μg/mL; Minimal inhibitory concentration, Streptococcus equi subsp. zooepidemicus [7, 21]: > 160 (29.7) μg/mL; Minimal inhibitory concentration, Staphylococcus haemolyticus [10]: 1 (37.3) μg/mL; Minimal inhibitory concentration, Staphylococcus chromogenes [11]: 0.25 (9.3) μg/mL; Minimal inhibitory concentration, Staphylococcus epidermidis [12]: 1 (37.3) μg/mL; Minimal inhibitory concentration, Staphylococcus xylosus [13]: 0.5 (18.7) μg/mL
MRGGRLCYCRRRFCVCVGR (disulfide (positions not given here)) [PG-1, pig cathelicidin produced recombinantly with a GFP-scaffold system, CNBr cleaved, disulfide bonds installed]								0.7 to 18.8	Minimal inhibitory concentration, Bacillus cereus [1, 15]: > 40 (17.5) μg/mL; Minimal inhibitory concentration, Enterococcus faecalis [2, 16]: > 40 (17.5) μg/mL; Minimal inhibitory concentration, Escherichia coli [9]: 23 (10.0) μg/mL; Minimal inhibitory concentration, Pseudomonas aeruginosa [3, 17]: 20 (8.7) μg/mL; Minimal inhibitory concentration, Streptococcus agalactiae [5, 19]: > 40 (17.5) μg/mL; Minimal inhibitory concentration, Streptococcus dysgalactiae [6, 20]: 32 (14.0) μg/mL; Minimal inhibitory concentration, Streptococcus equi subsp. zooepidemicus [7, 21]: > 40 (17.5) μg/mL
Nisin									Minimal inhibitory concentration, Bacillus cereus [1, 15]: 4 (1.2) μg/mL; Minimal inhibitory concentration, Escherichia coli [9]: > 64 (19.2) μg/mL; Minimal inhibitory concentration, Pseudomonas aeruginosa [3, 17]: > 64 (19.2) μg/mL; Minimal inhibitory concentration, Staphylococcus aureus [4, 18]: 2 (0.60) μg/mL; Minimal inhibitory concentration, Streptococcus agalactiae [5, 19]: 2 (0.60) μg/mL; Minimal inhibitory concentration, Streptococcus dysgalactiae [6, 20]: 4 (1.2) μg/mL; Minimal inhibitory concentration, Streptococcus equi subsp. zooepidemicus [7, 21]: 4 (1.2) μg/mL; MICs, range over all Gram-positive strains in the panel ([8]; all Gram-positive strains of the standard panel): 2 to 16 µg/mL
RRRPRPPYLPRPRPPPFFPPRLPPRIPPGFPPRFP [PR-35]	> 40 (9.5) μg/mL	> 40 (9.5) μg/mL	> 40 (9.5) μg/mL	> 40 (9.5) μg/mL	> 40 (9.5) μg/mL	> 40 (9.5) μg/mL	> 40 (9.5) μg/mL		
SKFFRKARKKLGKGLQKIKNVLRKY [ΔHg-CATH]	> 40 (13.2) μg/mL	> 40 (13.2) μg/mL	5 (1.7) μg/mL	> 40 (13.2) μg/mL	> 40 (13.2) μg/mL	15 (4.9) μg/mL	15 (4.9) μg/mL		MICs, range over the strains against which active [8]: 0.7 to 18.8 µM
TRSRWRRFIRGAGRFARRYGWRIA [ΔPb-CATH4]	> 40 (13.1) μg/mL	> 40 (13.1) μg/mL	11 (3.5) μg/mL	4 (1.3) μg/mL	> 40 (13.1) μg/mL	> 40 (13.1) μg/mL	20 (6.6) μg/mL		MICs, range over the strains against which active [8]: 0.7 to 18.8 µM
VKRTKRGARRGLTKVLKKIFGSIVKKAVSKGV [ΔModoCath1]		2.9 µM	2.9 µM	11 (3.2) μg/mL				0.7 to 18.8	
VRRSKRGIKVPSFVKKVLKDVVSESIS [ΔModoCath6]	> 40 (13.2) μg/mL	> 40 (13.2) μg/mL	> 40 (13.2) μg/mL	> 40 (13.2) μg/mL	> 40 (13.2) μg/mL	> 40 (13.2) μg/mL	> 40 (13.2) μg/mL		
WYQLIRTFGNLIHQKYRKLLEAYRKLRD [ΔModoCath5]	26 (7.3) μg/mL	10 (2.8) μg/mL	> 40 (11.0) μg/mL	6 (1.7) μg/mL	> 40 (11.0) μg/mL	> 40 (11.0) μg/mL	> 40 (11.0) μg/mL		
